Laboratory results taken from patent US20040132731A1, “Novel combination” (priority 2002, published 2004).

Test system: spontaneously hypertensive rat (SHR)
Test: Animal study: change in mean arterial pressure in anaesthetised spontaneously hypertensive rats
Assay type: in vivo
Conditions: anaesthetised male SHR; for Change in mean arterial pressure from vehicle: n=6/group, infusion at 0.5 mL/h, candesartan 0.02 μg/kg/min, PDE5 inhibitor 15.61 μg/kg/min, combination 15.61 μg/kg/min+0.02 μg/kg/min; for fall in MAP: text restatement of the table, combination vs sum of the two individual effects p=0.058
Experimental: The spontaneously hypertensive rat (SHR) is a widely used model of human hypertension. Anaesthetised male SHRs (250-450 g) were surgically prepared for the measurement of systolic, diastolic and mean arterial pressure. Cannulae were inserted into the jugular veins and carotid artery. The trachea was also cannulated to facilitate respiration. Following a 60 min post-surgical stabilisation period, arterial blood pressure and heart rate were recorded via a pressure transducer and PoNeMah data acquisition system.
Solutions of candesartan (0.02, μg/kg/min), PDE5 inhibitor (15.61 μg/kg/min) and a combination of PDE5 inhibitor and candesartan (15.61 μg/kg/min+0.02, μg/kg/min) were infused as appropriate at a rate of 0.5 mL/h. Control animals received compound vehicle (5% DMSO, 10% PEG200, 85% water for injection (v/v)).
Baseline haemodynamic parameters were recorded. Animals (n=6/group) were randomised to receive a primed infusion of either vehicle or PDE5 Inhibitor for a period of 60 min. At this point, these groups were further randomised to receive either (i) vehicle or PDE5 inhibitor alone, (ii) candesartan alone or (iii) a combination of candesartan and PDE5 inhibitor. Changes in mean arterial pressure were monitored during the study period.

Compound	Change in mean arterial pressure from vehicle	fall in MAP
CCOc1nc2cccc(C(=O)O)c2n1Cc1ccc(-c2ccccc2-c2nnn[nH]2)cc1 [candesartan]	−3.2 mmHg	3.2 mmHg
CCc1c2nc(-c3cc(S(=O)(=O)N4CCN(CC)CC4)cnc3OCCOC)[nH]c(=O)c2nn1Cc1ccccn1 [PDE5 inhibitor, 3-ethyl-5-[5-(4-ethylpiperazin-1-ylsulphonyl)-2-(2-methoxyethoxy)pyridin-3-yl]-2 (pyridin-2-yl)methyl-2,6-dihydro-7H-pyrazolo[4,3-d]pyrimidin-7-one]	−7.4 mmHg	7.4 mmHg
